Test systems include 786-0 renal; A498 renal; EKVX NSCLC; HCT-116 colon; HS 578T breast; MALME-3M melanoma; MDA-MB-435; MOLT-4 leukemia; NCI-H460 lung; NCI/ADR-RES ovarian; OVCAR-5 ovarian; OVCAR-8 ovarian; SF-268 CNS; SF-295 CNS; SF-539 CNS; SNB-75 CNS; TK-10 renal; UACC-257 melanoma; UACC-62 melanoma; RPMI-8226 leukemia.
What all share (assay): NCI tumour cell line growth inhibition, 48 h

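Step 1: Grow cells in 96-well plates. Step 2: Expose to compound for 48 hours at 5 concentrations. Step 3: Interpolate endpoints linearly; if unreached, use highest concentration. At the TGI there is no net growth.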

In the case of `CC(=O)OCOC(=O)CN(CC(=O)OCOC(C)=O)Cc1cc2c(cc1OC(C)=O)Oc1cc(OC(C)=O)c(CN(CC(=O)OCOC(C)=O)CC(=O)OCOC(C)=O)cc1C21OC(=O)c2ccccc21`, the TGI with 786-0 renal was determined as 1.41 µM; in the assay with A498 renal, 2.61 µM; in the assay with EKVX NSCLC, 10.6 µM; with HCT-116 colon it was 1.5 µM; with HS 578T breast, 1.59 µM; in the assay on MALME-3M melanoma, 1.88 µM. Also, the TGI turned out to be 2.02 µM in the assay with MDA-MB-435; 0.843 µM in the assay with MOLT-4 leukemia; 1.45 µM with NCI-H460 lung; 75 µM in the assay with NCI/ADR-RES ovarian; 11.1 µM in the assay on OVCAR-5 ovarian; 3.23 µM in the assay with OVCAR-8 ovarian. For the same compound, the TGI with SF-268 CNS was 4.22 µM; with SF-295 CNS it was 11.1 µM; in the assay with SF-539 CNS, 1.05 µM; with SNB-75 CNS, 9.39 µM; in the assay on TK-10 renal, 3 µM; with UACC-257 melanoma, 1.27 µM. This compound also had a TGI in the assay on UACC-62 melanoma of 1.19 µM.

Turning to `CN(C)CCCNC(=O)CCNC(=O)c1cc(NC(=O)c2cc(NC(=O)c3cc(NC(=O)c4nc(NC(=O)CCCNC(=O)c5cc(NC(=O)c6cc(NC(=O)c7cc(NC(=O)c8nccn8C)cn7C)cn6C)cn5C)cn4C)cn3C)cn2C)cn1C`, the TGI in the assay on 786-0 renal, with A498 renal, with EKVX NSCLC, with HCT-116 colon, in the assay with HS 578T breast and in the assay on MALME-3M melanoma was more than 100 µM each time. Further, the TGI with MDA-MB-435, in the assay with MOLT-4 leukemia, in the assay on NCI-H460 lung, in the assay on NCI/ADR-RES ovarian, in the assay with OVCAR-5 ovarian and in the assay with OVCAR-8 ovarian was more than 100 µM throughout. In addition, the TGI in the assay with RPMI-8226 leukemia, in the assay with SF-268 CNS, in the assay on SF-295 CNS, with SF-539 CNS, in the assay with SNB-75 CNS and with TK-10 renal was more than 100 µM in each case. Also, the TGI with UACC-257 melanoma was more than 100 µM.

As for `CCC1C(C#N)=C(N)OC2=C1C(=O)CC(C)(C)C2` (stereo not given), the TGI in the assay with 786-0 renal, with A498 renal, in the assay on EKVX NSCLC, in the assay on HCT-116 colon, with HS 578T breast and in the assay on MALME-3M melanoma was more than 100 µM each time. Also, the TGI with MDA-MB-435, with MOLT-4 leukemia, with NCI-H460 lung, in the assay with NCI/ADR-RES ovarian, in the assay on OVCAR-5 ovarian and with OVCAR-8 ovarian was more than 100 µM throughout. Also, the TGI with RPMI-8226 leukemia, in the assay with SF-268 CNS, in the assay with SF-295 CNS, with SF-539 CNS, with TK-10 renal and in the assay on UACC-257 melanoma was more than 100 µM in each case. For the same compound, the TGI in the assay on UACC-62 melanoma is more than 100 µM.

Turning to `CCOC(=O)N/N=C(/OCC)c1ccccc1`, the TGI with 786-0 renal, with A498 renal, in the assay on EKVX NSCLC, in the assay on HCT-116 colon, in the assay on HS 578T breast and in the assay on MALME-3M melanoma was more than 100 µM in each case. Further, the TGI in the assay with MDA-MB-435, in the assay on MOLT-4 leukemia, in the assay on NCI-H460 lung, with NCI/ADR-RES ovarian, with OVCAR-5 ovarian and in the assay on OVCAR-8 ovarian was more than 100 µM in each case. The TGI in the assay on RPMI-8226 leukemia, in the assay with SF-268 CNS, in the assay with SF-295 CNS, in the assay on SF-539 CNS, in the assay with TK-10 renal and in the assay with UACC-257 melanoma was more than 100 µM throughout. The TGI in the assay with UACC-62 melanoma is more than 100 µM.

With `CCOC(=O)c1c(N2CCCC2)nsc1Nc1ccc(F)cc1`, the TGI with 786-0 renal was more than 100 µM; with A498 renal, more than 100 µM; in the assay on EKVX NSCLC, more than 100 µM; in the assay with HCT-116 colon, more than 100 µM; in the assay on HS 578T breast it was more than 100 µM; in the assay on MALME-3M melanoma it was 57.5 µM. Moreover, the TGI in the assay on MDA-MB-435 is more than 100 µM; in the assay on MOLT-4 leukemia, 70.1 µM; in the assay with NCI-H460 lung it was more than 100 µM; in the assay with NCI/ADR-RES ovarian it was more than 100 µM; with OVCAR-5 ovarian it was 89.7 µM; in the assay on OVCAR-8 ovarian, more than 100 µM. Also, the TGI in the assay on RPMI-8226 leukemia, in the assay with SF-268 CNS, in the assay on SF-295 CNS, with SF-539 CNS, in the assay with TK-10 renal and with UACC-257 melanoma was more than 100 µM throughout. The same compound displayed a TGI in the assay on UACC-62 melanoma of more than 100 µM.

As to `O=[N+]([O-])C(C(Cl)=C(Cl)Cl)=C(N(Cc1ccccc1)Cc1ccccc1)N(Cc1ccccc1)Cc1ccccc1`, the TGI with 786-0 renal was more than 100 µM; in the assay on A498 renal, 86.6 µM; in the assay on EKVX NSCLC it was more than 100 µM; in the assay with HCT-116 colon it was more than 100 µM; with HS 578T breast, more than 100 µM; in the assay on MALME-3M melanoma, more than 100 µM. Further, the TGI in the assay with MDA-MB-435 is 79.8 µM; in the assay on MOLT-4 leukemia, more than 100 µM; with NCI-H460 lung it was more than 100 µM; in the assay with NCI/ADR-RES ovarian, more than 100 µM; in the assay with OVCAR-5 ovarian it was more than 100 µM; in the assay with OVCAR-8 ovarian, more than 100 µM. In addition, the TGI was more than 100 µM with SF-268 CNS; more than 100 µM with SF-295 CNS; 76.6 µM with SF-539 CNS; more than 100 µM in the assay with SNB-75 CNS; more than 100 µM with TK-10 renal; more than 100 µM in the assay with UACC-257 melanoma. Also, the TGI in the assay on UACC-62 melanoma is more than 100 µM.

Take `CC(C)(Br)C(Br)CCC(C)(Br)C(Br)CO` (stereo not given): the TGI in the assay with 786-0 renal, with A498 renal, in the assay on EKVX NSCLC, with HCT-116 colon, in the assay with HS 578T breast and in the assay on MALME-3M melanoma was more than 10 µM each time. Further, the TGI in the assay with MDA-MB-435, in the assay on MOLT-4 leukemia, in the assay with NCI/ADR-RES ovarian, in the assay on OVCAR-8 ovarian, with RPMI-8226 leukemia and in the assay on SF-268 CNS was more than 10 µM in each case. The TGI with SF-295 CNS, in the assay with SF-539 CNS, in the assay with SNB-75 CNS and with UACC-257 melanoma was more than 10 µM throughout.

Values taken from PubChem BioAssay (NCI).
